Test results published in article PMC10867124, “Plant root associated chitinases: structures and functions” (Frontiers in Plant Science, 2024).

T1: ZmChi19A (Zea mays, UniProt B6TR38, E147A/E169A)
T1 construct: cDNA from maize root; signal peptide removed; N-terminal 10xHis-SUMO tag kept, TEV site; CBD, catalytic domain and flexible C-terminal domain; pET28b, E. coli; FPLC-purified
T1 sequence (B6TR38 26-334 E147A/E169A limits assumed): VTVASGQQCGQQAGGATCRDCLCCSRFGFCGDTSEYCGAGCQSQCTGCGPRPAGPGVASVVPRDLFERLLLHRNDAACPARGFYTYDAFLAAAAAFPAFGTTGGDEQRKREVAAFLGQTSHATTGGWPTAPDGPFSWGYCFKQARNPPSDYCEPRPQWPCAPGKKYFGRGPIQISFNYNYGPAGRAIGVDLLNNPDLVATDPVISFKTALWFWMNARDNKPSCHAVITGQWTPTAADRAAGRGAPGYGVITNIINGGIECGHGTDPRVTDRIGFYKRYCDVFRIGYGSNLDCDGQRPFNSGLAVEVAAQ

B1: CspCh18A (Chitinophaga oryzae) (protein)
chain: CKKDEARPDNPQTKSEPRVETVTKAGGKSVCYVEVNSNSLLNTGKYTLTTGGQQLFDIAIIFAANINYNTTTGKAVLYNNPNVTNVLVNKNTQIVPLQNKGMKVLLSILGNHQGAGFCNFTSRAAAKAFAQQLADTANYYGLDGIDFDDEYADYGNNGLPQPNDSSFVMLLDELRKLMPTKIISFYYYGPAASRLSWGGKKAGDFINYSWNAMYGTYSVPNVAGLTKANLGPAAVDIQATSQSTANWLATQTKNNGYGIYLWYNLTSTDKHVYFSGVSNILYGSSVTYTP
notes: signal peptide removed; TEV site, His tag; pET28a, E. coli; TIM-barrel catalytic domain, no CBD; FPLC-purified

Tests used:
ZmChi19A = molecular target: T1, ZmChi19A; test: 4-MU release fluorescence, relative activity; type: biochemical; details: SUMO fusion; catalytic residues mutated
[1] = substrate: CC(=O)N[C@H]1[C@H](Oc2ccc3c(C)cc(=O)oc3c2)O[C@H](CO)[C@@H](O[C@@H]2O[C@H](CO)[C@@H](O[C@@H]3O[C@H](CO)[C@@H](O)[C@H](O)[C@H]3NC(C)=O)[C@H](O)[C@H]2NC(C)=O)[C@@H]1O; test: 4-MU release fluorescence, Langmuir fit; type: biochemical, Chitinophaga oryzae; details: 50 °C, pH 8

Molecule | 4-MU release fluorescence, relative activity (ZmChi19A) | Km [1] [µM]
CC(=O)N[C@H]1[C@H](Oc2ccc3c(C)cc(=O)oc3c2)O[C@H](CO)[C@@H](O[C@@H]2O[C@H](CO)[C@@H](O[C@@H]3O[C@H](CO)[C@@H](O)[C@H](O)[C@H]3NC(C)=O)[C@H](O)[C@H]2NC(C)=O)[C@@H]1O [4-MU-GlcNAc3] | ZmChi19A(E147A,E169A) showed almost complete loss of activity | –
B1 | – | 37
